For test [1] the following is noted: Ogbourne et al. 2004; cited from earlier work.
For a further test, the system named is B16. The conditions noted are these: Ogbourne et al. 2004; cited from earlier work.
The next test has as its system UVB-induced skin lesions. The experiment in a line: Field treatment of ~10 cm2 UVB-damaged skin: development of UVB-induced lesions. Format: in vivo, SKH1/hr mice. An excerpt: Outbred SKH1/hr mice were irradiated 3 times per week for 10-11 weeks under 6×TL-12/40 W fluorescent tubes (Phillips, Amsterdam, The Netherlands) mounted in parallel. The lamps emit 54% UVB (280-315 nm) and 46% UVA (315-400 nm) (Rebel et al., 2001). During the irradiation mice were segregated into individual boxes (11.5×20 cm) with a piece of 0.125 mm cellulose acetate placed over the box to prevent any UVC reaching the mice. The mice were 26 cm below the UV lamps. Under these conditions the mice received 1.25 times the minimal erythemal dose (MED) of UVB at each exposure, with the total UVB dose being 37.5 MED. One MED was defined as the minimal UVB dose, which caused erythema-oedema evident by visual examination. […] Such cessation was usually only necessary after the initial 2-3 doses of UVB, as mice become resistant to UVB-induced erythema with repeated exposures.
One to three days after discontinuation of UVB irradiation, a ˜10 cm2 rectangular area located centrally on the dorsa and previously demarcated by a tattoo were treated topically, daily for 2 days with 100 μl of 0.05% ingenol mebutate gel or 100 μl of placebo gel. An untreated group served as an additional control. The mice were monitored weekly for the development of lesions both within and outside the treatment areas. […] The number and size of lesions was monitored over time. All visible lesions were counted. […]

SMILES strings stand for the structures.

With `C/C=C(/C)C(=O)O[C@H]1C(C)=C[C@]23C(=O)[C@@H](C=C(CO)[C@@H](O)[C@]12O)[C@H]1[C@@H](C[C@H]3C)C1(C)C` [ingenol mebutate], in test [1], the LD90 values was 180 to 220 µM. The LD90 in the test on B16 is 190 µM. In addition, in the test on UVB-induced skin lesions (lesions within the treatment areas), the “growth of individual lesions vs control and placebo” value was “no significant difference”. For the same compound, the “number of lesions outside the treatment area” value with UVB-induced skin lesions (~10 cm2 area) was “not significantly affected”.

The values above are taken from patent publication US20140242012A1, “METHODS FOR TREATING UV-DAMAGED SKIN AND SCC TUMORS AND FOR REMOVING TATTOOS WITH TOPICAL INGENOL MEBUTATE” (LEO Laboratories Limited, priority 2011, published 2014).
